Results published in patent US20140171433A1, “MULTIPLE MYELOMA TREATMENT” (YM Biosciences Australia Pty Ltd, priority 2011, published 2014).
Entries after “also recorded” stand apart in the source; their conditions may differ. Like-named read-outs stand apart in the source and are kept apart here.

Assays:
Ras/MAPK = settings: cited from earlier work; for IL-6 induced activation of Ras/MAPK: refs [20, 22]
Cyclin D2 = settings: two HMCL, ref [22]; cited from earlier work
p-STAT3 (pY705) [1] = assay: IL-6 induced STAT3 phosphorylation in HMCL (intracellular FACS, western blot); assay type: cell-based, human
Protocol: HMCL were treated with CYT387 (1 or 2 μM) for 60 minutes and then stimulated with 10 ng/ml IL-6 for 15 minutes. Protein lysates of CYT387 treated and untreated HMCL were made with RIPA Buffer (50 mM Tris.HCl pH 7.4, 150 mM NaCl, 1 mM PMSF, 1 mM EDTA, 5 μg/ml Aprotinin, 5 μg/ml Leupeptin, 1% Triton X-100, 1% Sodium deoxycholate and 0.1% SDS). Briefly cells were incubated in RIPA buffer on ice for 30-60 minutes before being centrifuged at 16,100×g for 20 minutes at 4° C. and the supernatant collected. Protein concentration was quantified using DC Protein Assay (Bio-Rad) as per manufacturer's instructions. Subsequently, 100 μg of each protein lysate was separated by 10% SDS-PAGE and blotted onto nitrocellulose (Hybond ECL, Amersham) using the Bio-Rad semi-dry transfer system. Membranes were blocked with 5% skim milk powder 0.1% Tween-20/PBS for 60 minutes then incubated with mouse monoclonal antiphospho-STAT3 (pY705, Santa Cruz), mouse monoclonal anti-STAT3 (Santa Cruz) or mouse monoclonal anti-a-tubulin (Sigma-Aldrich) for 1-2 hours at room temperature or overnight at 4° C. The blots were washed three times for 15 minutes in 0.1% Tween-20/PBS, then incubated with secondary HRP lagged antibody (swine anti-rabbit Ig HRP (Dako) or rabbit anti-mouse Ig HRP (Dako)) for 1-2 hours at room temperature before washing as above. […]

p-STAT3 (pY705) [2] = assay: STAT3 phosphorylation in HMCL in coculture with bone marrow stromal cells (HS5 or primary BMSC); assay type: cell-based, human; settings: 15 minutes coculture with BMSC (with or without contact), co-treatment with 2 μM CYT387
Protocol: (§1) Activation of the JAK/STAT, PI3K/AKT and Ras/MAPK pathways was investigated using intracellular flow cytometry to measure the phosphorylation of STAT3 at tyrosine 705 (p-STAT3), AKT at serine 473 (p-AKT) and ERK1/2 at threonine 202 and tyrosine 204 (p-ERK). HMCL were stimulated alone with 10 ng/ml IL-6±[…] IGF-1 or stimulated in CC with HS5 stromal cells or primary BMSC with or without CYT387 treatment. For CC HS5 and primary BMSC were seeded into a 24 well plate at 2×10^5 cells/ml and allowed to establish for 4 hours, after which HMCL prestained with CD38 or CD138 FITC (BD) were added. MM cells were stimulated alone (10 ng/ml IL-6 or 5 ng/ml IL-6 and 100 ng/ml IGF-1), or in CC (direct CC with stroma or transwell (TW) CC with stroma) with or without either 60 minutes of CYT387 pretreatment or 15 minutes CYT387 co-treatment. After stimulation±treatment, MM cells were harvested and fixed with 2% paraformaldehyde for 10-30 minutes, washed then permeabilised with methanol overnight. Methanol was washed off and the cells were resuspended in p-STAT3 PE (BD), p-AKT PE (BD) or p-ERK (BD) and stained for 45-60 minutes at room temperature. Unbound antibody was washed off and the cells resuspended in 2% FBS PBS and acquired by FACS.

p-AKT (pS473) = assay: IL-6 and IGF-1 induced p-AKT, intracellular FACS, OCI-MY1; assay type: cell-based, human; settings: 2 μM CYT387 cotreatment, 15 minutes
Protocol: as §1

p-ERK1/2 (pT202/pY204) = assay: IL-6 and IGF-1 induced p-ERK, intracellular FACS, U266; assay type: cell-based, human; settings: 2 μM CYT387 cotreatment, 15 minutes
Protocol: as §1

[3] = system: HMCL (LP-1, NCI-H929, OPM2, RPMI-8226, ANBL-6, OCI-MY1, U266 and XG-1); assay: MTS cell proliferation assay on a panel of 8 HMCL; assay type: cell-based, human
Protocol: (§2) The viability and proliferation of CYT387 treated HMCL and untreated/vehicle controls were determined using various methods as described previously. Proliferation was measured first using Celltiter 96 AQeous one solution cell proliferation assay MTS reagent (Promega) on a panel of 8 HMCL. Cells were cultured at 2.0×10^5 cell/ml in 100 μl fresh media in 96 well plates for 24, 48 and 72 hours with CYT387 (0.1-5 μM). 20 μl of MTS reagent was added for the final 4 hours of treatment and the plates were read at 490 nm using a Fluostar Optima plate reader (BMG Labtech). The viable cell numbers of a panel of 5 HMCL that were treated with CYT387 with and without IL-6 co-treatment was also measured by trypan blue staining and haemocytometer count. The HMCL NCI-H929, OCI-MY1 and U266 were then selected for further analysis. Apoptosis of CYT387 treated cells was assessed by FACS with Annexin-V and propidium iodide (PI) staining. HMCLs were treated for 24 or 72 hours with 1 or 5 μM CYT387 then harvested and washed in Annexin Buffer (0.01 HEPES, 0.14 M NaCl, 2.5 mM CaCl2, pH 7.4) and stained with Annexin-V FITC (Biosource) made up in Annexin Buffer for 30 minutes at room temperature. Unbound antibody was then washed off with Atmexin Buffer and cells were resuspended in Annexin Buffer with 62.5 ng/mi PI (Sigma-Aldrich) and analyzed by FACS.

[4] = system: HMCL (NCI-H929, OCI-MY1 and U266); assay: Viable cell number by haemocytometer with and without IL-6; assay type: cell-based, human; settings: CYT387 0.5-1 μM, 10 ng/ml IL-6, 72 hours
Protocol: as §2

NCI-H929 [5] = assay: Viable cell number by haemocytometer; assay type: cell-based; settings: Homo sapiens; NCI-H929, 1 μM, after 72 hours; read-out: inhibition of cell proliferation
Protocol: as §2

OCI-MY1 = assay: Viable cell number by haemocytometer; assay type: cell-based; settings: Homo sapiens; OCI-MY1, 0.5 μM, after 72 hours; read-out: inhibition of cell proliferation
Protocol: as §2

U266 = assay: Viable cell number by haemocytometer; assay type: cell-based; settings: Homo sapiens, U-266; U266, 1 μM, after 72 hours; read-out: inhibition of cell proliferation
Protocol: as §2

[6] = system: HMCL (NCI-H929, OCI-MY1 and U266); assay: Cell cycle analysis by FACS (PI/RNase); assay type: cell-based, human
Protocol: (§3) The effect of CYT387 treatment on HMCL cell cycling was measured after 24 and 72 hours. CYT387 (1 or 5 μM) treated and untreated HMCL were harvested, washed in PBS and resuspended in 100 μl PBS. Cells were fixed with 1 ml of cold 70% ethanol while being vortexed. Tubes were stored at −20° C. until analysis. Once all samples were collected tubes were centrifuged at 500×g for 10 minutes, the supernatant was carefully removed and the cells washed in 5 ml PBS. After the final wash cells were resuspended 250-500 μl of PI/RNase staining buffer (BD) and incubated in the dark at room temperature for 15 minutes before being analyzed by FAGS.

NCI-H929 cells = assay: Cell cycle analysis by FACS (PI/RNase); assay type: cell-based, human; settings: after 24 and 72 hours treatment
Protocol: as §3

[7] = system: HMCL (NCIH929, OCI-MY1 and U266); assay: Annexin-V/Propidium Iodide FACS apoptosis; assay type: cell-based, human; settings: Annexin-V/PI; 3 HMCL
Protocol: as §2

NCI-H929 [8] = assay: Annexin-V/Propidium Iodide FACS apoptosis; assay type: cell-based; settings: Homo sapiens, read-out: reduction in viable cells
Protocol: as §2

[9] = system: NCI-H929, OCI-MY1 and U266; assay: PI FACS dose effect and synergy (Calcusyn) in HMCL; assay type: cell-based, human; settings: 24 and 48 hours
Protocol: For the synergy experiments HMCL were treated with CYT387 in combination with bortezomib or melphalan for 24 and 48 hours before being harvested and resuspended in FACS Buffer (0.5% HI FBS in PBS) supplemented with 62.5 ng/ml PI (Sigma-Aldrich). Cells were immediately analysed by FACS. The proportion of PI positive cells was quantitated by subtracting the background death of untreated cells. Single drug treated cells were compared to combination treated cells and synergism was calculated using Calcusyn software (Biosoft).

[10] = system: CD38+CD45− primary MM cells; assay: Apoptosis (Apo 2.7) of ex-vivo primary patient MM cells, single agent and combination; assay type: cell-based, human; settings: 24 hours, Calcusyn
From the text: Primary MM samples were obtained from Bone Marrow Aspirates from relapsed and refractory MM patients following written informed consent with approval from the Alfred Hospital Research and Ethics Committee and isolated and treated as previously described. Briefly, bone marrow mononuclear cells (BMMC) were isolated with Ficoll-Paque Plus (Amersham Biosciences), washed in PBS and red blood cells were lysed with NH4Cl solution (8.29 g/L ammonium chloride, 0.037 g/L EDTA, 1 g/L potassium bicarbonate). Cells were then washed again in PBS and quantitated by haemocytometer. BMMC samples were then cultured in complete RPMI-1640 media (as above for HMCL) for 24 hours. Subsequently the BMMC were plated at 5×10^5 cells/ml and were treated with CYT387 (5-50 μM) alone or (dependant on cell numbers) in combination with bortezoniib (5-40 nM) or melphalan (50-200 μM) for 24 and/or 48 hours. Drug-induced MM specific cell apoptosis was then compared to untreated and vehicle controls by staining for CD45 FITC (BD), CD38 PerCP-Cy5.5 (BD) and Apo 2.7 PE (Immunotech) to determine apoptosis in CD45−CD38+ MM cells. Samples were subsequently analyzed by FACS. Primary bone marrow stromal cells (BMSC) were also collected from patient BMMC, cells that adhered to the flask after an initial 24 hour culture were cultured with continued selection for adherent cells over several passages. […]

AKT = settings: PTEN mutated OPM2 MM cells, ref [30]; cited from earlier work
[11] = CYT387 in combination with bortezomib
[12] = CYT387 in combination with melphalan

Cc1cc(Nc2nc(N[C@@H](C)c3ncc(F)cn3)ncc2Cl)n[nH]1 [AZD1480]
IL-6 induced activation of Ras/MAPK (Ras/MAPK): reduce IL-6 induced activation of Ras/MAPK | Cyclin D2 (Cyclin D2): inhibited Cyclin D2

N#CCNC(=O)c1ccc(-c2ccnc(Nc3ccc(N4CCOCC4)cc3)n2)cc1 [CYT387, N-(cyanomethyl)-4-[2-[[4-(4-morpholinyl)phenyl]amino]-4-pyrimidinyl]-benzamide]
phosphorylation of STAT3 in IL-6 stimulated samples (p-STAT3 (pY705) [1]; CYT387 0.5-2 μM for 1 hour, then IL-6 for 15 minutes, NCI-H929, OCI-MY1 and U266, FACS and western blotting): inhibited the phosphorylation of STAT3 | Total STAT3 protein (p-STAT3 (pY705) [1]; western blot, CYT387 then IL-6 stimulation): unaffected | amount of p-STAT3 in the HMCL (p-STAT3 (pY705) [2]): dramatically reduced the amount of p-STAT3 | p-AKT activation after IL-6 and IGF-1 stimulation (p-AKT (pS473)): significantly reduced; also recorded: dramatic reduction | IL-6 and IGF-1 induced p-ERK (p-ERK1/2 (pT202/pY204)): significantly inhibited; also recorded: significant reduction | most sensitive HMCL to CYT387 treatment (MTS) ([3]; 72 hours): NCI-H929 and XG-1 were the most sensitive | cell proliferation response by MTS assay ([3]; CYT387 0.1-5 μM, 24, 48 and 72 hours, 8 HMCL): Six of 8 HMCL had a time and dose dependent response | proliferation of HMCL in the presence of IL-6 [4]: able to reduce the proliferation of HMCL in culture even in the presence of IL-6 | inhibition at 1 µM (NCI-H929 [5]): 50% | inhibition at 0.5 µM (OCI-MY1): 50% | inhibition at 1 µM (U266): 44% | cells in the G2/M phase of the cell cycle ([6]; CYT387 1-5 μM, NCI-H929, OCI-MY1 and U266): marked accumulation of cells in the G2/M phase | polyploid population ([6]; CYT387 treated samples): additional polyploid population was found | increase in cells in G2/M compared to untreated or vehicle treated control (NCI-H929 cells): more than a two fold increase | proportion of apoptotic cells [7]: increased proportion of apoptotic cells was detected in all 3 HMCL | cytotoxicity at 5 µM (NCI-H929 [8]; NCI-H929, 5 μM CYT387, 24 hours): 21% | cytotoxicity at 5 µM (NCI-H929 [8]; NCI-H929, 5 μM CYT387, 72 hours): 52% | apoptosis (PI+ cells), dose effect curves ([9]; CYT387 0.5-10 μM): induced apoptosis in 3 HMCL in a time and dose dependent manner | synergy with bortezomib (combination index, Calcusyn) [9, 11]: displayed synergism; also recorded: synergistic or nearly additive in 18/24 combinations | synergy with melphalan (combination index, Calcusyn) [9, 12]: displayed synergism; also recorded: Synergy is seen | synergy with bortezomib in primary patient cells [10, 11]: synergy was also observed with bortezomib in some patients/doses | synergy with melphalan in primary patient cells [10, 12]: synergize with melphalan in ⅔ patients

N#C/C(=C/c1ccc(O)c(O)c1)C(=O)NCc1ccccc1 [AG490]
IL-6 induced Ras/MAPK activation (Ras/MAPK; in the hands of others, ref [31]): no decrease | IL-6 induced activation of Ras/MAPK (Ras/MAPK): reduce IL-6 induced activation of Ras/MAPK | AKT activation (AKT): could also abrogate AKT activation
